Like-named read-outs stand apart in the source and are kept apart here.

Data set [1] deals with T-cell activation in human whole blood. Briefly: Example 5: IFN-g, IL-2 and IL-17A release in thapsigargin stimulated human whole blood. The settings on record: 24 Hr, at least 2 replicate experiments. The class given is cell-based. An excerpt: Human whole blood was used to assess the potency of Kv1.3 inhibitor peptides on T-cell activation as determined by release of the cytokines IFN-g, IL-2 and IL-17A after stimulation with thapsigargin. Addition of thapsigargin activates a signalling cascade resulting in T cell proliferation and cytokine production, in which the Kv1.3 ion channel plays a key role. Activity of Kv1.3 inhibitors in human primary T cells can thus be measured in this experimental system.
Human whole blood was obtained from healthy blood donors and was collected after informed consent using Sodium Heparin blood sampling tubes (Becton, Dickinson and Company (BD), Cat #367876). Test peptides were diluted to 4× final testing concentrations in assay buffer (Dulbecco's Modified Eagle's medium (DMEM) with high glucose and GlutaMAX (3.97 mM L-alanine-L-glutamine) (Gibco Cat #61965026) supplemented with 25 mM HEPES buffer, 1 mM Sodium Pyruvate, 100 units/ml Penicillin, 100 μg/ml Streptomycin and 0.05% Casein from bovine milk (Sigma-Aldrich Cat #C4765)) and 25 μl was added to wells of a 96 well tissue culture plate. Then 50 μl human whole blood was added and incubated for minimum 5 minutes at room temperature to allow compound binding. Then 25 μl of 40 μM thapsigargin diluted in assay buffer was added to all wells of the assay plates to activate the cells, followed by incubation for 24 Hr at 37° C./5% CO2 in a humidified box. The assay plates were centrifuged for 10 min at 300 g at 4° C. and the supernatants were transferred to new plates. The concentrations of IFN-g, IL-2 and IL-17A released to the supernatants were measured using a tri-plex human cytokine detection kit (MSD Human U-Plex IFN-g, IL-2 and IL-17A kit; Meso Scale Discovery Cat #K15067L-2) and all three cytokines were measured using a MSD MESO QuickPlex SQ 120 instrument as described by the manufacturer (Meso Scale Discovery, Rockville, Maryland, USA).
To determine the potency of inhibition for the compounds, the cytokine concentration data were fitted using a three parameter logistic dose response model based on the formula Y=Bottom+(Top−Bottom)/(1+IC50/X), where Y is measured cytokine concentrations, X is compound concentrations and Top, bottom and IC50 are parameters fitted using the software Graphpad Prism version 5.04. The IC50 value calculated from the concentration response curve represents the compound concentration that gives an inhibition response halfway between the basal (Bottom) response and the maximal (Top) response.
All values are derived from at least 2 replicate experiments. All of the tested Kv1.3 blockers were able to inhibit cytokine production from human T cells present in human whole blood that was stimulated with thapsigargin.

The target in data set [2] is T1, Kv1.2 (Homo sapiens, UniProt P16389).
T1 construct: expressed in transfected cells
Briefly: Patch clamp assay (QPatch), Kv1.2. It is filed as cell-based. The settings on record: for IC50: QPatch, CHO cells stably expressing human Kv1.2, read-out: Potency IC50, Kv1.2; for Selectivity Kv1.2/Kv1.3: ratio of IC50 Kv1.2/Kv1.3.

Data set [3] concerns T-cell activation in rat whole blood. Briefly: Example 4: IL-17A release in thapsigargin stimulated rat whole blood. The class given is cell-based, rat (Lewis or Sprague-Dawley). The note with it: 24 Hr, at least 2 replicates, unit inferred, read-out: IC50 (inhibition of IL-17A release). In outline:
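Heparinised whole blood from naïve Lewis or Sprague-Dawley rats preincubated ≥5 min at RT with peptide, then stimulated with thapsigargin (40 μM stock added as one quarter of well volume) for 24 h at 37 °C. Supernatant IL-17A measured by ELISA; IC50 from curves normalised to stimulated and unstimulated controls, ≥2 replicates.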

The target in data set [4] is T2, Kv1.1 (Homo sapiens, UniProt Q09470).
T2 construct: expressed in transfected cells
Briefly: Patch clamp assay (QPatch), Kv1.1. It is filed as cell-based. The settings on record: for IC50: QPatch, CHO cells stably expressing human Kv1.1, read-out: Potency IC50, Kv1.1; for Selectivity Kv1.1/Kv1.3: ratio of IC50 Kv1.1/Kv1.3.

Data set [5] concerns the target T3, Kv1.6 (Homo sapiens, UniProt P17658).
T3 construct: expressed in transfected cells
Briefly: Patch clamp assay (QPatch), Kv1.6. It is filed as cell-based. The settings on record: for IC50: QPatch, CHO cells stably expressing human Kv1.6, read-out: Potency IC50, Kv1.6; for Selectivity Kv1.6/Kv1.3: ratio of IC50 Kv1.6/Kv1.3. In general terms: In patch-clamp work, channel activity is measured electrically.
Protocol: Selectivity of Kv1.3 inhibitor peptides for Kv1.3 over other potassium ion channels (Kv1.1, Kv1.2 and Kv1.6) was determined using patch clamp assay.
Chinese Hamster Ovary (CHO) cell lines stably expressing exogenous human α-subunits of each potassium ion channel were grown and passaged under standard culture conditions.
The automated, chip-based planar patch clamp device QPatch® was used to quantitate the ionic currents. All recordings were made in the conventional whole-cell configuration after establishment of gigaohm seals. […] During experiments 0.1% (v/v) BSA was included as a vehicle in all external recording solutions. Currents were elicited from a holding potential of −80 mV using a voltage protocol, which shifted the voltage to 30 mV for 500 ms every 15 s.
Concentration-response relationships were established by cumulatively applying seven escalating concentrations of test sample to an individual cell with a recording period of 2 min per compound application.
The efficacy was determined as the mean charge for the last three sweeps at the end of each concentration application period from the cursor positions. The percent inhibition for each test dose application period was calculated as the reduction in mean cursor value (charge) relative to the cursor value measured at the end of the vehicle period and used to calculate the IC50 from the concentration response curve.

Data set [6] is described as follows: Example 6: Pharmacokinetic characterisation after s.c. administration. The class given is in vivo, rat (Sprague Dawley or Wistar). The settings on record: rat, 70 nmol/kg. The protocol: Sprague Dawley or Wistar rats (males with a body weight of approximately 250-350 g) were given a single subcutaneous (s.c.) injection of each peptide to be tested.
Following s.c. administration of the selected peptides (dose 70 nmol/kg, dosing volume either 2 or 5 mL/kg), blood samples were drawn at 15 min, 30 min, 45 min, 60 min, 90 min, 2 h, 3 h, 4 h post-dose. At each sampling time point, samples from the rats were drawn by sublingual bleeding or by tail cut. After last sampling the rats were sacrificed by O2/CO2 anaesthesia. The dosing vehicle was 10 mM phosphate, 0.8% NaCl, 0.05% Polysorbate 20 (pH 6.0).
Plasma samples were analyzed after solid phase extraction (SPE) by liquid chromatography mass spectrometry (LC-MS/MS). Mean plasma concentrations were used for calculation of the pharmacokinetic parameters using the non-compartmental approach in Phoenix WinNonlin 6.4 or a later version. […]. AUCinf is the area under the plasma concentration−time curve extrapolated to infinity (AUCinf=AUClast+Clast/λz, where Clast is the last observed plasma concentration). Cmax is the maximum observed concentration, occurring at Tmax.

In data set [7] the target is T4, Kv1.3 (Homo sapiens, UniProt P22001).
T4 construct: expressed in transfected cells
Briefly: Patch clamp assay (QPatch), Kv1.3. It is filed as cell-based. The note with it: CHO cells stably expressing human Kv1.3, read-out: Potency IC50, Kv1.3.

The subject of data set [8] is human peripheral blood mononuclear cells (PBMCs). Briefly: Example 3b: IL-2 release from anti-CD3 stimulated human PBMCs. It is filed as cell-based. The settings on record: 5 donors, anti-CD3 1 μg/ml, geometric mean, at least 6 replicates.
Protocol: Human peripheral blood mononuclear cells (PBMCs) were used to assess the effects of Kv1.3 inhibitor peptides on T-cell activation as determined by IL-2 release after stimulation with anti-CD3.
Human PBMCs were obtained from Precision for Medicine (Frederick, MD). Cells from 5 donors were used. Plate-bound anti-CD3 was used to stimulate bulk T cells in the PBMC preparations. Briefly, 96-well plates were coated with anti-CD3 antibody for app. 16 hours at 5° C., using 50 μl of a 1 μg/ml anti-CD3 solution diluted in PBS. Thereafter the plates were washed twice.
Peptides were subsequently diluted in medium (RPMI 1640 with Glutamax-I containing, 10% v/v Fetal Bovine Serum, 1% v/v penicillin-streptomycin Solution) and added in a volume of 50 μl. The peptides indicated in Table 4b were used at concentrations ranging from 0.3 pM to 1000 nM (half log dilutions, starting concentrations varying). Cyclosporin A (1 μg/ml) and Vm24 peptide (100 nM) were used as positive controls.
Finally, 50,000 PBMCs in the same medium were added to each well in a volume of 50 μl, giving a final volume of 100 μl per well. The plates were incubated for 20-24 hours in a 370C/5% CO2 incubator. After centrifugation of the plates, 25 μl supernatant was transferred to IL-2 detection plates (MSD Human IL-2 Tissue Culture Kit, cat #K151AHB-2) and IL-2 was measures as described by the manufacturer (Meso Scale Discovery, Rockville, Maryland, USA).
All values derive from at least 6 replicates.
Data set [9] shares this test system. Briefly: Example 3a: IL-2 release from anti-CD3 stimulated human PBMCs. It is filed as cell-based.
Protocol: Human peripheral blood mononuclear cells (PBMCs) were used to assess the effects of Kv1.3 inhibitor peptides on T-cell activation as determined by IL-2 (cytokine) release after stimulation with anti-CD3.
Human PBMCs were obtained from Precision for Medicine (Frederick, MD). Cells from 5 donors were used. Plate-bound anti-CD3 was used to stimulate bulk T cells in the PBMC preparations. Briefly, 96-well plates were coated with anti-CD3 antibody for 2 hrs at 37° C., using 50 μL of a 0.5 μg/mL anti-CD3 solution diluted in 1×PBS. Thereafter the plates were washed twice.
Cyclosporin A (1 ug/ml) and Vm24 peptide (100 nM) were used as positive controls. Finally, 1×10^5 PBMCs were added to each well in a volume of 100 μL, giving a final volume of 200 μL per well. The plates were incubated for 20-24 hours in a 37° C./5% CO2 incubator. After centrifugation of the plates, 25 μl supernatant was transferred to IL-2 detection plates (MSD Human IL-2 Tissue Culture Kit, cat #K151AHB-2) and IL-2 was measures as described by the manufacturer (Meso Scale Discovery, Rockville, Maryland, USA).
All values derive from at least 4 replicates.
[10] abbreviates: read-out: anti-CD3 PBMC/IL-2 IC50.

T2 sequence (Q09470 whole entry): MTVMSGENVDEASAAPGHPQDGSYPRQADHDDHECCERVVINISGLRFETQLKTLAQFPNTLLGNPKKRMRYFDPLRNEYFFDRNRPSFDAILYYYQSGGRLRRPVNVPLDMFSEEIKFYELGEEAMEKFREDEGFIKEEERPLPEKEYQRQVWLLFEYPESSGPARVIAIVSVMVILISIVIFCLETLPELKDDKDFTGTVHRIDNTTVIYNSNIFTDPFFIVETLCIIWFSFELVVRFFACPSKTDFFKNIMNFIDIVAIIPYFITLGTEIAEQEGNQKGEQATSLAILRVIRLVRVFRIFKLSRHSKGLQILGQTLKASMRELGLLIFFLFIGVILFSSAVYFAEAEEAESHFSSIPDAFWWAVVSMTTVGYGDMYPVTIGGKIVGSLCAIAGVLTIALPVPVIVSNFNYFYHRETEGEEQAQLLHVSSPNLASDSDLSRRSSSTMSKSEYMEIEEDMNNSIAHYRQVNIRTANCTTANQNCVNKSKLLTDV
T1 sequence (P16389 whole entry): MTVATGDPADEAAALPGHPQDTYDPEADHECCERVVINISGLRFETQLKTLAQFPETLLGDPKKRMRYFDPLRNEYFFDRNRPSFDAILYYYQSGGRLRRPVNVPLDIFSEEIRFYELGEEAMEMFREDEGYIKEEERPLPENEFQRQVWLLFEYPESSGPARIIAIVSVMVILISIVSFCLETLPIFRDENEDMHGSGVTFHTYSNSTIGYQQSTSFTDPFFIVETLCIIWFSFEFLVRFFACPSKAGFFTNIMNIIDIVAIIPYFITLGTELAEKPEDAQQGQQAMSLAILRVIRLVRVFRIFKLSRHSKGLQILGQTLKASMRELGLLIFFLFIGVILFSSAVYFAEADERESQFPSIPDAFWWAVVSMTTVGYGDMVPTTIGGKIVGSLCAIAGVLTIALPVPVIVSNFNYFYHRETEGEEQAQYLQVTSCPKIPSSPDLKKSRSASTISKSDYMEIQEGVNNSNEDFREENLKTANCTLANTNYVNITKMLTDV
T3 sequence (P17658 whole entry): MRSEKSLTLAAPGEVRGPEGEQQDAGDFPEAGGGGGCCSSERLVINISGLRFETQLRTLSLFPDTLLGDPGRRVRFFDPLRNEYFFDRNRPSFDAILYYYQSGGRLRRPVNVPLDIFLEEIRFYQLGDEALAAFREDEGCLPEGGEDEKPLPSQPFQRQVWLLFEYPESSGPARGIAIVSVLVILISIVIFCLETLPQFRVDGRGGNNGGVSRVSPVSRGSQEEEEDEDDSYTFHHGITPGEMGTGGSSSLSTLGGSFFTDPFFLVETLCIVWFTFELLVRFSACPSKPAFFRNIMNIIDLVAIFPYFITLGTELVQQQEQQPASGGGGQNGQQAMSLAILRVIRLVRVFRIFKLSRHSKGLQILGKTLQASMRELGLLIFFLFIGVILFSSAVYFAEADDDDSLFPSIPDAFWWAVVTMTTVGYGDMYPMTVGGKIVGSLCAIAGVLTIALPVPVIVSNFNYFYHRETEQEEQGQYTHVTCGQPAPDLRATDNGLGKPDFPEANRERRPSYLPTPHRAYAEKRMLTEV
T4 sequence (P22001 whole entry): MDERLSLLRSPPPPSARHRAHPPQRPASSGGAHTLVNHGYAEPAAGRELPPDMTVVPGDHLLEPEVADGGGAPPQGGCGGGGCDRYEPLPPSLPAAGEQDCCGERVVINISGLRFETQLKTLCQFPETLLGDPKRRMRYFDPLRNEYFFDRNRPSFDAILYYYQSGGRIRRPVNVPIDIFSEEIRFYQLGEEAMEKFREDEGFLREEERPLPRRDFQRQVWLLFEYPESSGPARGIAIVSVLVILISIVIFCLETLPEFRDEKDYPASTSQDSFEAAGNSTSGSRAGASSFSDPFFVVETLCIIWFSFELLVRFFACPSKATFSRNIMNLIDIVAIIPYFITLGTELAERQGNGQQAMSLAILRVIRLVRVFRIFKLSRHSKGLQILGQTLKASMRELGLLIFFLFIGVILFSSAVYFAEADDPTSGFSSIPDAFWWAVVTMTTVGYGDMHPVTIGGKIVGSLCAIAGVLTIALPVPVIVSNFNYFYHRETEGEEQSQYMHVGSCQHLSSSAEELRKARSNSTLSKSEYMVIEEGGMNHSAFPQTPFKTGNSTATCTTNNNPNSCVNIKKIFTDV

For orientation: Cmax means the peak of the concentration-time curve. On to “H-NMDMRC(1)SASVEC(2)KQKC(3)LKAIGSIFGKC(1)MNKKC(2)KC(3)YPR-OH [Peptide 3]”, for which the IC50 in data set [1] (read-out: Average IC50, IFN-g) is 0.058 nM; in data set [1] (read-out: Average IC50, IL-2) it was 0.022 nM; in data set [1] (read-out: Average IC50, IL-17A) it was 0.044 nM; in data set [2], 409 nM; in [3] it was 1 nM; in data set [4] it was greater than 3000 nM. Also, the IC50 in [5] is greater than 3000 nM; in data set [7] it was 0.27 nM; in [8] (setting [10]), 0.06 nM. Besides, the “Selectivity Kv1.2/Kv1.3” value in data set [2] worked out at 1540. Also, in data set [4], the “Selectivity Kv1.1/Kv1.3” value was greater than 11300. In addition, the “Selectivity Kv1.6/Kv1.3” value in data set [5] is greater than 11300. Further, in data set [6] (plasma), the AUCINF came out at 0.0839 µM·h. In addition, the Cmax in data set [6] (plasma) is 36.9 nM. Besides, the T1/2 in [6] (plasma terminal elimination half-life) came out at 59.4 min.

As for “H-P[Nle]D[Nle]RC(1)SASVEC(2)KQKC(3)LKAIGSIFGKC(1)[Nle]NKKC(2)KC(3)YPR-NH2 [Peptide 42]”, the IC50 in data set [1] (read-out: Average IC50, IFN-g) is 0.046 nM; in data set [1] (read-out: Average IC50, IL-2) it was 0.03 nM; in [1] (read-out: Average IC50, IL-17A) it was 0.058 nM; in data set [2] it was 939 nM; in data set [3], 0.98 nM; in [4], greater than 3000 nM. For the same substance, the results for the IC50 in data set [5], in data set [7] and in data set [8] (setting [10]) were greater than 3000 nM, 0.18 nM and 0.03 nM, respectively. Besides, in [2], the “Selectivity Kv1.2/Kv1.3” value was 5362. Further, in data set [4], the “Selectivity Kv1.1/Kv1.3” value is greater than 17100. For the same substance, the “Selectivity Kv1.6/Kv1.3” value in data set [5] is on record as greater than 17100.

On to “H-QMDMRC(1)SASVEC(2)KQKC(3)LKAIGSIFGKC(1)MNKKC(2)KC(3)YPR-OH [Peptide 1]”, for which the IC50 in data set [2] was 518 nM; in [3], 0.17 nM; in data set [4], greater than 3000 nM; in data set [5] it was greater than 3000 nM; in [7], 0.38 nM; in data set [8] (setting [10]), 0.09 nM. In data set [2], the “Selectivity Kv1.2/Kv1.3” value is given as 1364. Also, the “Selectivity Kv1.1/Kv1.3” value in data set [4] was greater than 7900. Moreover, the “Selectivity Kv1.6/Kv1.3” value in data set [5] was greater than 7900.

On to “H-[phosphotyrosyl][8-Amino-3,6-dioxaoctanoyl]RSCIDTIPKSRCTAFQCKHSMKYRLSFCRKTCGTC-NH2 [ShK-186, reference compound]”, for which the IC50 in data set [2] was found to be 43 nM; in [4] it was 0.31 nM; in [5] it was 0.45 nM; in data set [7] it was 0.095 nM; in data set [8] (listed as ShK186, read-out: anti-CD3 PBMC/IL-2 IC50), 0.05 nM; in data set [8] (setting [10]) it was 0.04 nM. The IC50 in [9] (human PBMCs, 5 donors, anti-CD3 0.5 μg/mL, geometric mean, at least 4 replicates, read-out: anti-CD3 PBMC/ IL-2 IC50) was 0.07 nM. Further, the “Selectivity Kv1.2/Kv1.3” value in data set [2] came to 682. In addition, the “Selectivity Kv1.1/Kv1.3” value in [4] stood at 4.9. In addition, the “Selectivity Kv1.6/Kv1.3” value in data set [5] came to 7.4. Also, the “comparison of IC50 (IL-2 secretion) with ShK186 / Moka1” value in data set [9] (in words) was “significantly lower than Moka1”.

Values taken from patent US20260325605A1, “INHIBITORS” (Zealand Pharma A/S, priority 2022, published 2026).
